Reference: ChEMBL document CHEMBL3046822, “Synthesis, antiplatelet aggregation activity, and molecular modeling study of novel substituted-piperazine analogues” (2011)
Active and inactive are the calls of the source. No cut-off for these calls is given here.

Tests used:
[1] = tested on: Platelet; experiment: Antiaggregating activity in Homo sapiens (human) platelet rich plasma assessed as inhibition of collagen-induced platelet aggregation at 4 uM incubated for 4 min prior to collagen-induction measured for 5.5 min by turbidometric analysis; type: functional, cell-free
[2] = tested on: Platelet; experiment: Antiaggregating activity in Homo sapiens (human) platelet rich plasma assessed as inhibition of ADP-induced platelet aggregation at 10 uM incubated for 4 min prior to ADP-induction measured for 5.5 min by turbidometric analysis; type: functional, cell-free
[3] = Antiaggregating activity in Homo sapiens (human) platelet rich plasma assessed as ristocetin-induced platelet aggregation at 4 uM incubated for 4 min prior to ristocetin-induction measured for 5.5 min by turbidometric analysis (reference value: 65 to 99%); type: functional
[4] = Antiaggregating activity in Homo sapiens (human) platelet rich plasma assessed as ristocetin-induced platelet aggregation at 10 uM incubated for 4 min prior to ristocetin-induction measured for 5.5 min by turbidometric analysis (reference value: 65 to 99%); type: functional
[5] = tested on: Platelet; experiment: Antiaggregating activity in Homo sapiens (human) platelet rich plasma assessed as inhibition of adrenaline-induced platelet aggregation at 4 uM incubated for 4 min prior to adrenaline-induction measured for 5.5 min by turbidometric analysis; type: functional, cell-free
[6] = tested on: Platelet; experiment: Antiaggregating activity in Homo sapiens (human) platelet rich plasma assessed as inhibition of arachidonic acid-induced platelet aggregation at 10 uM incubated for 4 min prior to arachidonic acid-induction measured for 5.5 min by turbidometric analysis; type: functional, cell-free
[7] = tested on: Platelet; experiment: Antiaggregating activity in Homo sapiens (human) platelet rich plasma assessed as inhibition of arachidonic acid-induced platelet aggregation at 5 uM incubated for 4 min prior to arachidonic acid-induction measured for 5.5 min by turbidometric analysis; type: functional, cell-free
[8] = tested on: Platelet; experiment: Antiaggregating activity in Homo sapiens (human) platelet rich plasma assessed as inhibition of collagen-induced platelet aggregation at 10 uM incubated for 4 min prior to collagen-induction measured for 5.5 min by turbidometric analysis; type: functional, cell-free
[9] = tested on: Platelet; experiment: Antiaggregating activity in Homo sapiens (human) platelet rich plasma assessed as inhibition of collagen-induced platelet aggregation at 5 uM incubated for 4 min prior to collagen-induction measured for 5.5 min by turbidometric analysis; type: functional, cell-free
[10] = Antiaggregating activity in Homo sapiens (human) platelet rich plasma assessed as disaggregation of ADP-induced platelet aggregation at 5 uM incubated for 4 min prior to ADP-induction measured for 5.5 min by turbidometric analysis relative to control; type: functional
[11] = tested on: Platelet; experiment: Antiaggregating activity in Homo sapiens (human) platelet rich plasma assessed as inhibition of adrenaline-induced platelet aggregation at 10 uM incubated for 4 min prior to adrenaline-induction measured for 5.5 min by turbidometric analysis; type: functional, cell-free
[12] = tested on: Platelet; experiment: Antiaggregating activity in Homo sapiens (human) platelet rich plasma assessed as inhibition of adrenaline-induced platelet aggregation at 5 uM incubated for 4 min prior to adrenaline-induction measured for 5.5 min by turbidometric analysis; type: functional, cell-free
[13] = Antiaggregating activity in Homo sapiens (human) platelet rich plasma assessed as disaggregation of ADP-induced platelet aggregation at 4 uM incubated for 4 min prior to ADP-induction measured for 5.5 min by turbidometric analysis relative to control; type: functional
[14] = tested on: Platelet; experiment: Antiaggregating activity in Homo sapiens (human) platelet rich plasma assessed as inhibition of arachidonic acid-induced platelet aggregation at 4 uM incubated for 4 min prior to arachidonic acid-induction measured for 5.5 min by turbidometric analysis; type: functional, cell-free
[15] = Antiaggregating activity in Homo sapiens (human) platelet rich plasma assessed as ristocetin-induced platelet aggregation at 5 uM incubated for 4 min prior to ristocetin-induction measured for 5.5 min by turbidometric analysis (reference value: 65 to 99%); type: functional
[16] = Antiaggregating activity in Homo sapiens (human) platelet rich plasma assessed as ADP-induced platelet aggregation at 5 uM incubated for 4 min prior to ADP-induction measured for 5.5 min by turbidometric analysis (reference value: 54 to 88%); type: functional
[17] = tested on: Platelet; experiment: Antiaggregating activity in Homo sapiens (human) platelet rich plasma assessed as ADP-induced platelet aggregation at 20 uM incubated for 4 min prior to ADP-induction measured for 5.5 min by turbidometric analysis (reference value: 54 to 88%); type: functional
[18] = tested on: Platelet; experiment: Antiaggregating activity in Homo sapiens (human) platelet rich plasma assessed as inhibition of ristocetin-induced platelet aggregation at 20 uM incubated for 4 min prior to ristocetin-induction measured for 5.5 min by turbidometric analysis; type: functional, cell-free
[19] = tested on: Platelet; experiment: Antiaggregating activity in Homo sapiens (human) platelet rich plasma assessed as inhibition of arachidonic acid-induced platelet aggregation at 20 uM incubated for 4 min prior to arachidonic acid-induction measured for 5.5 min by turbidometric analysis; type: functional, cell-free
[20] = Antiaggregating activity in Homo sapiens (human) platelet rich plasma assessed as arachidonic acid-induced platelet aggregation at 1 uM incubated for 4 min prior to arachidonic acid-induction measured for 5.5 min by turbidometric analysis (reference value: 55 to 100%); type: functional
[21] = tested on: Platelet; experiment: Antiaggregating activity in Homo sapiens (human) platelet rich plasma assessed as inhibition of adrenaline-induced platelet aggregation at 1 uM incubated for 4 min prior to adrenaline-induction measured for 5.5 min by turbidometric analysis; type: functional, cell-free
[22] = Antiaggregating activity in Homo sapiens (human) platelet rich plasma assessed as collagen-induced platelet aggregation at 1 uM incubated for 4 min prior to collagen-induction measured for 5.5 min by turbidometric analysis (reference value: 50 to 98%); type: functional
[23] = Antiaggregating activity in Homo sapiens (human) platelet rich plasma assessed as ristocetin-induced platelet aggregation at 1 uM incubated for 4 min prior to ristocetin-induction measured for 5.5 min by turbidometric analysis (reference value: 65 to 99%); type: functional
[24] = tested on: Platelet; experiment: Antiaggregating activity in Homo sapiens (human) platelet rich plasma assessed as inhibition of collagen-induced platelet aggregation at 20 uM incubated for 4 min prior to collagen-induction measured for 5.5 min by turbidometric analysis; type: functional, cell-free
[25] = Antiaggregating activity in Homo sapiens (human) platelet rich plasma assessed as ADP-induced platelet aggregation at 1 uM incubated for 4 min prior to ADP-induction measured for 5.5 min by turbidometric analysis (reference value: 54 to 88%); type: functional
[26] = tested on: Platelet; experiment: Antiaggregating activity in Homo sapiens (human) platelet rich plasma assessed as inhibition of adrenaline-induced platelet aggregation at 20 uM incubated for 4 min prior to adrenaline-induction measured for 5.5 min by turbidometric analysis; type: functional, cell-free
[27] = tested on: Platelet; experiment: Antiaggregating activity in Homo sapiens (human) platelet rich plasma assessed as inhibition of ristocetin-induced platelet aggregation at 2.5 uM incubated for 4 min prior to ristocetin-induction measured for 5.5 min by turbidometric analysis; type: functional, cell-free
[28] = Antiaggregating activity in Homo sapiens (human) platelet rich plasma assessed as arachidonic acid-induced platelet aggregation at 0.6 uM incubated for 4 min prior to arachidonic acid-induction measured for 5.5 min by turbidometric analysis (reference value: 55 to 100%); type: functional
[29] = Antiaggregating activity in Homo sapiens (human) platelet rich plasma assessed as adrenaline-induced platelet aggregation at 2.5 uM incubated for 4 min prior to adrenaline-induction measured for 5.5 min by turbidometric analysis (reference value: 65 to 100%); type: functional
[30] = Antiaggregating activity in Homo sapiens (human) platelet rich plasma assessed as adrenaline-induced platelet aggregation at 1 uM incubated for 4 min prior to adrenaline-induction measured for 5.5 min by turbidometric analysis (reference value: 65 to 100%); type: functional
[31] = Antiaggregating activity in Homo sapiens (human) platelet rich plasma assessed as ADP-induced platelet aggregation at 2.5 uM incubated for 4 min prior to ADP-induction measured for 5.5 min by turbidometric analysis (reference value: 54 to 88%); type: functional
[32] = Antiaggregating activity in Homo sapiens (human) platelet rich plasma assessed as collagen-induced platelet aggregation at 2.5 uM incubated for 4 min prior to collagen-induction measured for 5.5 min by turbidometric analysis (reference value: 50 to 98%); type: functional
[33] = tested on: Platelet; experiment: Antiaggregating activity in Homo sapiens (human) platelet rich plasma assessed as inhibition of arachidonic acid-induced platelet aggregation at 0.5 uM incubated for 4 min prior to arachidonic acid-induction measured for 5.5 min by turbidometric analysis; type: functional
[34] = tested on: Platelet; experiment: Antiaggregating activity in Homo sapiens (human) platelet rich plasma assessed as inhibition of arachidonic acid-induced platelet aggregation at 0.25 uM incubated for 4 min prior to arachidonic acid-induction measured for 5.5 min by turbidometric analysis; type: functional, cell-free
[35] = Antiaggregating activity in Homo sapiens (human) platelet rich plasma assessed as ADP-induced platelet aggregation at 0.125 uM incubated for 4 min prior to ADP-induction measured for 5.5 min by turbidometric analysis (reference value: 54 to 88%); type: functional
[36] = Antiaggregating activity in Homo sapiens (human) platelet rich plasma assessed as ADP-induced platelet aggregation at 0.25 uM incubated for 4 min prior to ADP-induction measured for 5.5 min by turbidometric analysis (reference value: 54 to 88%); type: functional
[37] = Antiaggregating activity in Homo sapiens (human) platelet rich plasma assessed as collagen-induced platelet aggregation at 0.25 uM incubated for 4 min prior to collagen-induction measured for 5.5 min by turbidometric analysis (reference value: 50 to 98%); type: functional
[38] = tested on: Platelet; experiment: Antiaggregating activity in Homo sapiens (human) platelet rich plasma assessed as inhibition of ADP-induced platelet aggregation at 1 uM incubated for 4 min prior to ADP-induction measured for 5.5 min by turbidometric analysis; type: functional, cell-free
[39] = tested on: Platelet; experiment: Antiaggregating activity in Homo sapiens (human) platelet rich plasma assessed as inhibition of adrenaline-induced platelet aggregation at 0.5 uM incubated for 4 min prior to adrenaline-induction measured for 5.5 min by turbidometric analysis; type: functional, cell-free
[40] = tested on: Platelet; experiment: Antiaggregating activity in Homo sapiens (human) platelet rich plasma assessed as inhibition of adrenaline-induced platelet aggregation at 0.125 uM incubated for 4 min prior to adrenaline-induction measured for 5.5 min by turbidometric analysis; type: functional, cell-free
[41] = tested on: Platelet; experiment: Antiaggregating activity in Homo sapiens (human) platelet rich plasma assessed as inhibition of arachidonic acid-induced platelet aggregation at 1 uM incubated for 4 min prior to arachidonic acid-induction measured for 5.5 min by turbidometric analysis; type: functional, cell-free
[42] = Antiaggregating activity in Homo sapiens (human) platelet rich plasma assessed as arachidonic acid-induced platelet aggregation at 0.125 uM incubated for 4 min prior to arachidonic acid-induction measured for 5.5 min by turbidometric analysis (reference value: 55 to 100%); type: functional
[43] = tested on: Platelet; experiment: Antiaggregating activity in Homo sapiens (human) platelet rich plasma assessed as inhibition of adrenaline-induced platelet aggregation at 0.25 uM incubated for 4 min prior to adrenaline-induction measured for 5.5 min by turbidometric analysis; type: functional, cell-free
[44] = Antiaggregating activity in Homo sapiens (human) platelet rich plasma assessed as ristocetin-induced platelet aggregation at 0.25 uM incubated for 4 min prior to ristocetin-induction measured for 5.5 min by turbidometric analysis (reference value: 65 to 99%); type: functional
[45] = Antiaggregating activity in Homo sapiens (human) platelet rich plasma assessed as collagen-induced platelet aggregation at 0.125 uM incubated for 4 min prior to collagen-induction measured for 5.5 min by turbidometric analysis (reference value: 50 to 98%); type: functional
[46] = Antiaggregating activity in Homo sapiens (human) platelet rich plasma assessed as disaggregation of ADP-induced platelet aggregation at 0.5 uM incubated for 4 min prior to ADP-induction measured for 5.5 min by turbidometric analysis relative to control; type: functional
[47] = Antiaggregating activity in Homo sapiens (human) platelet rich plasma assessed as ristocetin-induced platelet aggregation at 0.125 uM incubated for 4 min prior to ristocetin-induction measured for 5.5 min by turbidometric analysis (reference value: 65 to 99%); type: functional
[48] = tested on: Platelet; experiment: Antiaggregating activity in Homo sapiens (human) platelet rich plasma assessed as inhibition of collagen-induced platelet aggregation at 0.5 uM incubated for 4 min prior to collagen-induction measured for 5.5 min by turbidometric analysis; type: functional, cell-free
[49] = Antiaggregating activity in Homo sapiens (human) platelet rich plasma assessed as ristocetin-induced platelet aggregation at 0.5 uM incubated for 4 min prior to ristocetin-induction measured for 5.5 min by turbidometric analysis (reference value: 65 to 99%); type: functional
[50] = tested on: Platelet; experiment: Antiaggregating activity in Homo sapiens (human) platelet rich plasma assessed as inhibition of collagen-induced platelet aggregation at 1 uM incubated for 4 min prior to collagen-induction measured for 5.5 min by turbidometric analysis; type: functional, cell-free

With `O=C(c1ccc[n+](Cc2ccc(F)cc2)c1)N1CCN(c2ccccc2Cl)CC1.[Cl-]` the inhibition [1] was “Active”, the inhibition [2] was “Active” and the Activity [3] was 88%. For the same compound, the Activity [4] was 24%, the inhibition [5] was “Active” and the inhibition [6] was “Active”. The inhibition [7] was “Active”, the inhibition [8] was “Active” and the inhibition [9] was “Active”. For the same compound, the Activity [10] was 40%, the inhibition [11] was “Active” and the inhibition [12] was “Active”. The Activity [13] was 60%, the inhibition [14] was “Active” and the Activity [15] was 87%.

For `O=C(c1ccc[n+](Cc2ccc(Br)cc2)c1)N1CCN(c2ncccn2)CC1.[Br-]`, the Activity [16] was 64%, the inhibition [2] was “Active” and the Activity [4] was 27%. For the same compound, the inhibition [17] was “Active”, the inhibition [6] was “Active” and the inhibition [7] was “Active”. The inhibition [8] was “Active”, the inhibition [9] was “Active” and the inhibition [18] was “Active”. The inhibition [19] was “Active”, the inhibition [11] was “Active” and the Activity [20] was 52%. The inhibition [12] was “Active”, the inhibition [21] was “Active” and the Activity [22] was 64%. For the same compound, the Activity [23] was 60%, the inhibition [24] was “Active” and the Activity [25] was 60%. The inhibition [26] was “Active” and the Activity [15] was 43%.

For `O=C(c1ccc[n+](Cc2ccccc2)c1)N1CCN(c2ccccc2Cl)CC1.[Cl-]`, the inhibition [27] was “Active”, the Activity [28] was 53% and the Activity [20] was 67%. The Activity [29] was 12%, the Activity [30] was 75% and the Activity [22] was 80%. It also gave an Activity [23] of 89%, an Activity [25] of 83% and an Activity [31] of 83%. It also gave an Activity [32] of 82%.

With `O=C(c1ccc[n+](Cc2ccc(Br)cc2)c1)N1CCN(c2ccccc2Cl)CC1.[Br-]` the inhibition [33] was “Active”, the inhibition [34] was “Active” and the Activity [35] was 84%. The Activity [36] was 74%, the Activity [37] was 77% and the inhibition [38] was “Active”. The inhibition [39] was “Active”, the inhibition [40] was “Active” and the inhibition [41] was “Active”. The Activity [42] was 68%, the inhibition [43] was “Active” and the inhibition [21] was “Active”. It also gave an Activity [44] of 84%, an Activity [45] of 67% and an Activity [46] of 52%. For the same compound, the Activity [47] was 84%, the Activity [23] was 69% and the inhibition [48] was “Active”. For the same compound, the Activity [49] was 78% and the inhibition [50] was “Active”.
